# Experiments:
# [1] = molecular target: T1, human Tyrosinase (in the form of melanocytic extract) (Homo sapiens, UniProt P14679); test: Tyrosinase assay by oxidation of DOPA, human tyrosinase (melanocytic extract); format: biochemical; conditions: for OD475 nm (HME) / inhibition at 100 µM / inhibition at 1000 µM / inhibition at 10 µM / % Inhibition (HME): 37° C., 45 minutes; for OD475 nm (HME): background-corrected, uninhibited enzyme control 0.141; for inhibition at 100 µM / inhibition at 1000 µM / inhibition at 10 µM: read-out: % Inhibition (HME); for inhibit the activity of tyrosinase: summary in words, at least one of human or mushroom tyrosinase, inhibitor = colour inhibited by more than 10% of control
# T1 construct: 2.5 mg/ml human melanocytic lysate OR; endogenous in cells; host or cells: human melanocytes (lysate/extract)
# T1 sequence (P14679 19-529): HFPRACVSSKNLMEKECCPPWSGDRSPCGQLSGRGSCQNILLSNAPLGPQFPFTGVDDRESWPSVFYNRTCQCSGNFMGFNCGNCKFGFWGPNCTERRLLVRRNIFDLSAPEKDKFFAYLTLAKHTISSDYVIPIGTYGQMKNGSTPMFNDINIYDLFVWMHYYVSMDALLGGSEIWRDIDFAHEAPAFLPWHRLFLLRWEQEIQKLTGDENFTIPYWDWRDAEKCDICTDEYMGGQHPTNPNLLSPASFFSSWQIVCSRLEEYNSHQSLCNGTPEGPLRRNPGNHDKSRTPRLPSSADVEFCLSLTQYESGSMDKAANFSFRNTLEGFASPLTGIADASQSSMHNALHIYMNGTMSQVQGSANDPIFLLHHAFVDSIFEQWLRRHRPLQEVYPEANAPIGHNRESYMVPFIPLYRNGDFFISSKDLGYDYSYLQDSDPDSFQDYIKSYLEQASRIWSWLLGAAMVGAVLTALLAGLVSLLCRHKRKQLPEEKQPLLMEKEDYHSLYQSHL
# Protocol: The (tyrosinase) inhibitory activity of a, b, c and d was measured by oxidation of DOPA. Each crown ether was tested against human Tyrosinase (in the form of melanocytic extract) and commercial (Worthington, USA) mushroom tyrosinase (MT), using the DOPA oxidation assay. Details of the assay mix are included in table 2. […] Assay examined the change (Optical Density) OD475 nm at 37° C., after 45 minutes reaction in a standard 96-well plate. All ON475 nm were corrected by subtracting the background OD475 nm value of the negative control sample lacking enzyme in the assay mix. […] The background effect of 10% DMSO on tyrosinase activity was also examined for calculation purposes (i.e. the ‘U’ sample).
# mushroom tyrosinase (MT) = test: Tyrosinase assay by oxidation of DOPA, mushroom tyrosinase; format: biochemical; conditions: 37° C., 45 minutes; for OD475 nm (MT): background-corrected, uninhibited enzyme control 0.17
# Protocol: The (tyrosinase) inhibitory activity of a, b, c and d was measured by oxidation of DOPA. Each crown ether was tested against human Tyrosinase (in the form of melanocytic extract) and commercial (Worthington, USA) mushroom tyrosinase (MT), using the DOPA oxidation assay. Details of the assay mix are included in table 2. [table] Assay examined the change (Optical Density) OD475 nm at 37° C., after 45 minutes reaction in a standard 96-well plate. All ON475 nm were corrected by subtracting the background OD475 nm value of the negative control sample lacking enzyme in the assay mix. […] The background effect of 10% DMSO on tyrosinase activity was also examined for calculation purposes (i.e. the ‘U’ sample).
Structure (SMILES),OD475 nm (HME) ([1]; 0.1 mM test compound),inhibition at 100 µM ([1]; 0.1 mM test compound) [%],OD475 nm (HME) ([1]; 1 mM test compound),inhibition at 1000 µM ([1]; 1 mM test compound) [%],inhibit the activity of tyrosinase [1],% Inhibition (MT) (mushroom tyrosinase (MT); 0.1 mM test compound) [%],OD475 nm (MT) (mushroom tyrosinase (MT); 0.1 mM test compound),% Inhibition (MT) (mushroom tyrosinase (MT); 1 mM test compound) [%],OD475 nm (MT) (mushroom tyrosinase (MT); 1 mM test compound),OD475 nm (HME) ([1]; 0.01 mM test compound),inhibition at 10 µM ([1]; 0.01 mM test compound) [%],% Inhibition (HME) ([1]; 1 mM test compound),% Inhibition (MT) (mushroom tyrosinase (MT); 0.01 mM test compound) [%],OD475 nm (MT) (mushroom tyrosinase (MT); 0.01 mM test compound),% Inhibition (HME) ([1]; 0.01 mM test compound),% Inhibition (MT) (mushroom tyrosinase (MT); 0.25 mM test compound) [%],OD475 nm (MT) (mushroom tyrosinase (MT); 0.25 mM test compound),% Inhibition (MT) (mushroom tyrosinase (MT); 0.5 mM test compound) [%],OD475 nm (MT) (mushroom tyrosinase (MT); 0.5 mM test compound)
O=C(O)c1ccc2c(c1)OCCOCCOCCO2 [Compound a],0.126,11,0.029,79,inhibit the activity of at least one of human or mushroom tyrosinase,25,0.128,60,0.068,,,,,,,,,,
O=C(NC1CCCCC1)N(C(=O)c1ccc2c(c1)OCCOCCOCCO2)C1CCCCC1 [Compound b],,,0.162,,inhibit the activity of at least one of human or mushroom tyrosinase,,,28,0.122,0.125,12,No,6,0.160,,,,,
O=C(O)c1ccc2c(c1)OCCOCCOCCOc1ccc(C(=O)O)cc1OCCOCCOCCO2 [Compound c],0.094,33,0.027,81,inhibit the activity of at least one of human or mushroom tyrosinase,5,0.162,49,0.087,0.092,35,,9,0.156,,,,,
COC(=O)C(C)(C)NC(=O)C(CC(C)C)NC(=O)C(C)NC(=O)c1ccc2c(c1)OCCOCCOCCOc1ccc(C(=O)NC(C)C(=O)NC(CC(C)C)C(=O)NC(C)(C)C(=O)OC)cc1OCCOCCOCCO2 (centres unmarked) [Compound d],0.134,5,0.110,23,inhibit the activity of at least one of human or mushroom tyrosinase,58,0.071,69,0.053,0.144,,,19,0.137,No,,,,
"O=c1cc(CO)occ1O [Kojic acid, reference compound]",,,,,,23,0.131,,,,,,,,,35,0.111,51,0.084

# — patent publication US10729628B2, “Tyrosinase inhibitors” (Conopco, Inc., priority 2015, dated 2020)
